Test results published in patent publication EP4420661B1, “SMALL MOLECULES TARGETING GLYCOPROTEIN VI AS ANTIPLATELET AGENTS FOR USE IN THE PREVENTION AND/OR TREATMENT OF THROMBOSIS AND ASSOCIATED PATHOLOGIES” (Universidade de Santiago de Compostela, priority 2023, dated 2024).
Converted amounts (≈) assume the structure as drawn.

Tests used:
[1] = metabolic stability, dog microsomes; type: in vitro ADME; details: Dog microsomes
Method: Microsomes from Tebu-bio Xenotech were employed in the assay, having a content of 20 mg/ml of protein. The following quantities were added to each well of a 96-well microplate. Table 6: Metabolic stability assay.
Plates were incubated at 37°C and 75 µL samples were taken at 0, 10, 20, 40 and 60 minutes.
Samples were transferred to a microplate and 75 µl Acetonitrile + IS(Rolipram) were added for inactivating the microsomes, and 30 µl of H2O with 0.5% formic acid for improving the chromatographic conditions and kept at 4°C. When all the samples were taken the plate was centrifuged at […] for 30 min at 15°C. Stationary phase: ACQUITY BEH C18 1.7µm 2.1x50mm (Waters) Mobile phase: A: 0.1% formic; B: acetonitrile+0.1% formic acid Gradient: Table 6: UPLC gradient / Metabolic stability assay
Metabolic stability was calculated from the logarithm of the remaining compound at each of the times evaluated.

[2] = solubility by nephelometry; details: 1% dmso/pbs, 37 °C, aqueous buffer, kinetic from dmso stock
Method: Solubility was determined by nephelometry to assess its potential impact on the bioassays at active concentrations.
Then, said compounds were incubated for 2 hours at 37°C and read in a NEPHELOstar Plus (BMG LABTECH).

[3] = plasmatic stability, mouse plasma; type: in vitro ADME; parameters: unit not given beside the values
Method: (§1) Rat, human, mouse and dog plasma pooled from healthy donors extracted in citrate tubes was employed in the assay.
(§2) […] Then 300µl Acetonitrile were added for precipitating plasma protein, and the plate was centrifuged at 4000 g for 60 min at 4°C.
(§3) Supernatant was taken and analyzed by UPLC/MS/MS for sample quantification. Stationary phase: Reverse phase ACQUITY BEH C18 1.7µm 2.1x50mm (Waters) Mobile phase: 0.1% Formic acid water/0.1% formic acid in acetonitrile Gradient: Table 4: UPLC gradient / Plasmatic stability assay
(§4) The chromatographic equipment employed was an UPLC QSM Waters Acquity. Compound concentrations were calculated from the MS peak areas.

[4] = plasmatic stability, human plasma; type: in vitro ADME; details: for Plasmatic stability: Human plasma
Method: as §1, §2, §3, §4

[5] = target: T1, CYP3A4 (Homo sapiens, UniProt P08684); experiment: CYP inhibition, liver microsomes, substrate cocktail; type: in vitro ADME; details: for inhibition at 25 min, 10 µM: human, liver microsomes
T1 construct: 0.5 mg protein/mL of liver microsomes (HLM Xenotech); tissue Xenotech; host or cells: liver microsomes
Method: (§5) Cytochrome P450 (CYP) are a family of enzymes which play a major role in the metabolism of drugs. Assessment of the potential of a compound to inhibit a specific cytochrome P450 enzyme is important as co-administration of compounds may result in one or both inhibiting the other's metabolism.
(§6) All the incubations were performed in 250 µL reaction medium containing sodium/potassium phosphate buffer 50mM, pH 7.4, 3mM MgCl2, an NADPH regeneration system 1mM NADP, 10mM glucose 6-phosphate, and 1 U/mL glucose 6-phosphate dehydrogenase, 0.5 mg protein/mL of liver microsomes (HLM Xenotech), and a substrate cocktail composed of phenacetin for CYP1A2, diclofenac for CYP2C9, S-mephenytoin for CYP2C19, bufuralol for CYP2D6, midazolam for CYP3A4, and testosterone for CYP3A4. Final concentrations of substrate in the reaction medium were: 10 µM phenacetin, 10 µM diclofenac, 5 µM bufuralol, 100µM S-Mephenytoin, 5 µM midazolam, and 50 µM testosterone. Following incubation at 37°C for 25 min, the reactions were terminated by the addition of ice-cold acetonitrile and the plate was centrifuged at 4000 g for 60 min at 4°C.
(§7) Supernatant was taken and analyzed by UPLC/MS/MS for sample quantification The chromatographic equipment employed was an UPLC QSM Waters Acquity. Stationary phase: Reverse phase Acquity UPLC® BEHC18 1,7 µm (2.1 mm x 100 mm) (Waters) Mobile phase: 0.1% Formic acid water/0.1% formic acid in acetonitrile. Flow: 0.8 ml/min. Gradient: Table 10: UPLC gradient / CYP inhibition assay

[6] = target: T2, CYP2C19 (Homo sapiens, UniProt P33261); experiment: as above; type: in vitro ADME
T2 construct: 0.5 mg protein/mL of liver microsomes (HLM Xenotech); tissue Xenotech; host or cells: liver microsomes
Method: as §5, §6, §7

[7] = target: T3, CYP2D6 (Homo sapiens, UniProt P10635); experiment: as above; type: in vitro ADME
T3 construct: 0.5 mg protein/mL of liver microsomes (HLM Xenotech); tissue Xenotech; host or cells: liver microsomes
Method: as §5, §6, §7

[8] = target: T4, CYP2C9 (Homo sapiens, UniProt P11712); experiment: as above; type: in vitro ADME
T4 construct: 0.5 mg protein/mL of liver microsomes (HLM Xenotech); tissue Xenotech; host or cells: liver microsomes
Method: as §5, §6, §7

[9] = target: T5, CYP1A2 (Homo sapiens, UniProt P05177); experiment: as above; type: in vitro ADME
T5 construct: 0.5 mg protein/mL of liver microsomes (HLM Xenotech); tissue Xenotech; host or cells: liver microsomes
T5 sequence (P05177 1-516): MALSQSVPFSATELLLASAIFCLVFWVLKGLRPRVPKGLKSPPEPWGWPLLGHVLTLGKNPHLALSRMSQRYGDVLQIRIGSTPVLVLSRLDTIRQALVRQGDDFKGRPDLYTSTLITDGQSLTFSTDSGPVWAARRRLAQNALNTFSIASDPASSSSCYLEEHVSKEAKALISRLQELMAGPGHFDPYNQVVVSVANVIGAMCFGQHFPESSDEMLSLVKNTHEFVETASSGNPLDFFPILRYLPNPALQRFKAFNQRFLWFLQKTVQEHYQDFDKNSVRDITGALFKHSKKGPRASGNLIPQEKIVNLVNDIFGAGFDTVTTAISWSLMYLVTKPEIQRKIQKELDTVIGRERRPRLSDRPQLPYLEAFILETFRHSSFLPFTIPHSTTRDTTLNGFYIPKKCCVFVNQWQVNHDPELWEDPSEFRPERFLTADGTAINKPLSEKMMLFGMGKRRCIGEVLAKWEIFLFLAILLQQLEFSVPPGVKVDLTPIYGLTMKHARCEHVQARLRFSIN
Method: as §5, §6, §7

T1 sequence (P08684 whole entry): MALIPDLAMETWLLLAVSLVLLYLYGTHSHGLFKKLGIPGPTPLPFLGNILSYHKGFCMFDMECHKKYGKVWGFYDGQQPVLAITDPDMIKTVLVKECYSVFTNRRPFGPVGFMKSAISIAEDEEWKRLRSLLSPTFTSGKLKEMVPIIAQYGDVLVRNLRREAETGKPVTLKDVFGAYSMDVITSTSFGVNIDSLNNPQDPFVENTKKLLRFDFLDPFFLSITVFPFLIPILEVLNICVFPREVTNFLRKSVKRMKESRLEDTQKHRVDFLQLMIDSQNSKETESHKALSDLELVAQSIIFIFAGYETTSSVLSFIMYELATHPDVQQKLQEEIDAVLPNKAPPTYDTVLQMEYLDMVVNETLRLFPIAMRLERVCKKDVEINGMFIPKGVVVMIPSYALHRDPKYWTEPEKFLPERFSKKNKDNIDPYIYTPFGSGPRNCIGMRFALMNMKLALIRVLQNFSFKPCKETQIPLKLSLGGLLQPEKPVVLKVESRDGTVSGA
T2 sequence (P33261 whole entry): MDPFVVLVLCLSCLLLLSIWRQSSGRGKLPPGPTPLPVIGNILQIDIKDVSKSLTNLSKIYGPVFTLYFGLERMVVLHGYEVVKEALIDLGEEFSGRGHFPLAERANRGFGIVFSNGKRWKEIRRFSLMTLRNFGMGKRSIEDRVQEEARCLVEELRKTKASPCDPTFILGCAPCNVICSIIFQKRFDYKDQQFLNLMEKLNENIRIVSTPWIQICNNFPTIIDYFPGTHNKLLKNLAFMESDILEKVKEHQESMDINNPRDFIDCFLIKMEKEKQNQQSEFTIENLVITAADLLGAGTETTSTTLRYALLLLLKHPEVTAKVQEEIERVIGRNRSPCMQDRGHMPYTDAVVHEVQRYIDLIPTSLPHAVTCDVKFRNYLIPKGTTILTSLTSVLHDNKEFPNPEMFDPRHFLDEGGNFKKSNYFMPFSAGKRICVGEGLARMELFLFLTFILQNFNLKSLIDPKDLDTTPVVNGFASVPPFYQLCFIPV
T4 sequence (P11712 whole entry): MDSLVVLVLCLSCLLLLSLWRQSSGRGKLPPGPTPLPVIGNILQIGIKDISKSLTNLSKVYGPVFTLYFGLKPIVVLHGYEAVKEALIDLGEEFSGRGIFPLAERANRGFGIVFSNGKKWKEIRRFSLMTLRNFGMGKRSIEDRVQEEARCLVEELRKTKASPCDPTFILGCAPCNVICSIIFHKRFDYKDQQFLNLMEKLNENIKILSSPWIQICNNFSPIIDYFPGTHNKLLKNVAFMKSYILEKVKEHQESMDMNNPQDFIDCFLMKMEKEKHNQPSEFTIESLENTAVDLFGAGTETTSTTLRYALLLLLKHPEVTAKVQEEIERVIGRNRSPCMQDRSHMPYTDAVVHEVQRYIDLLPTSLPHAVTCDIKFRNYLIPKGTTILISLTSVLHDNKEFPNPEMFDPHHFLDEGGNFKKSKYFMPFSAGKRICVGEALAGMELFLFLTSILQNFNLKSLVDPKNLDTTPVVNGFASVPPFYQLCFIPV
T3 sequence (P10635 whole entry): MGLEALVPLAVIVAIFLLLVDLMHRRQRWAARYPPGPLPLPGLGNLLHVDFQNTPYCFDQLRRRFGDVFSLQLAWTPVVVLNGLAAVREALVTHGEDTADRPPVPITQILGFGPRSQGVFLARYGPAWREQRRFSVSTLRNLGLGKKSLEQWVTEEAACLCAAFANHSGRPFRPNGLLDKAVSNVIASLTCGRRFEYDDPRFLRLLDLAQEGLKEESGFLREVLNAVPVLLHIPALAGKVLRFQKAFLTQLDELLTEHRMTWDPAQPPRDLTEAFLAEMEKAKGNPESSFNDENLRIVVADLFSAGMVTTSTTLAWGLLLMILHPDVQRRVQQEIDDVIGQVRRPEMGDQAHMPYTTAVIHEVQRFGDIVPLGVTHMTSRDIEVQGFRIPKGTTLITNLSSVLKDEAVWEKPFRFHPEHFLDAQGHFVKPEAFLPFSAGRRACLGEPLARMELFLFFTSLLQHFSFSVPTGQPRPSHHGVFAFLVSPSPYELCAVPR

Structure (SMILES): O=C(Cc1ccc2c(c1)OCCO2)Nc1nc(-c2ccc3c(c2)CCC(=O)N3)cs1 [Compound (If)]
- half-life [1]: 5.42 h
- microsomal CLint [1]: 2.17 µL/min/mg
- % remanent (*) ([1]; (*) sampling time 60 min): 89.2%
- solubility at 2 h [2]: 61.5 µM (≈ 25.9 µg/mL)
- Plasmatic stability ([3]; 10µM, t 0 min): 100.0
- Plasmatic stability ([3]; 10µM, t 60 min): 67.8
- Plasmatic stability ([3]; 10µM, t 120 min): 41.6
- Plasmatic stability ([3]; 10µM, t 360 min): 5.6
- Plasmatic stability ([3]; 100µM, t 0 min): 100.0
- Plasmatic stability ([3]; 100µM, t 60 min): 77.6
- Plasmatic stability ([3]; 100µM, t 120 min): 57.5
- Plasmatic stability ([3]; 100µM, t 360 min): 9.6
- Plasmatic stability ([4]; 10µM, t 0 min): 100.0
- Plasmatic stability ([4]; 10µM, t 60 min): 101.0
- Plasmatic stability ([4]; 10µM, t 120 min): 101.7
- Plasmatic stability ([4]; 10µM, t 360 min): 101.4
- Plasmatic stability ([4]; 100µM, t 0 min): 100.0
- Plasmatic stability ([4]; 100µM, t 60 min): 104.3
- Plasmatic stability ([4]; 100µM, t 120 min): 107.4
- Plasmatic stability ([4]; 100µM, t 360 min): 106.4
- plasmatic stability (in words) ([4]; human): high plasmatic stability
- IC50 ([5]; CYP3A4 (Midazolam)): > 10 µM
- IC50 ([5]; CYP3A4 (Testosterone), 25 min): > 10 µM
- inhibition at 25 min, 10 µM ([5]; pH 7.4, CYP3A4 (Midazolam)): -9.4%
- inhibition at 25 min, 10 µM ([5]; pH 7.4, CYP3A4 (Testosterone)): -12.8%
- IC50 ([6]; CYP2C19, substrate S-mephenytoin): > 10 µM
- inhibition at 25 min, 10 µM ([6]; human, liver microsomes, pH 7.4, CYP2C19, 10µM, substrate S-mephenytoin): -18.8%
- IC50 ([7]; CYP2D6, substrate bufuralol): > 10 µM
- inhibition at 25 min, 10 µM ([7]; human, liver microsomes, pH 7.4, CYP2D6, 10µM, substrate bufuralol): -2.9%
- IC50 ([8]; CYP2C9, substrate diclofenac): > 10 µM
- inhibition at 25 min, 10 µM ([8]; human, liver microsomes, pH 7.4, CYP2C9, 10µM, substrate diclofenac): -0.7%
- IC50 ([9]; CYP1A2, substrate phenacetin): > 10 µM
- inhibition at 25 min, 10 µM ([9]; human, liver microsomes, pH 7.4, CYP1A2, 10µM, substrate phenacetin): -5.3%
